In general, pIC50 refers to −log10 of the IC50, conventionally taken in molar units. Read a low pIC50 as a large IC50. In general, inhibition refers to the change of the read-out against control, counted positive when it falls. What is called pKd is the Kd on a negative log10 scale, so that one unit is a factor of ten.

The nature of data set [1]: Antiproliferative activity against human A549 cells after 48 hrs by MTT assay. It counts as functional, cell-based. Particulars: A549, 48 h. (Tetrazolium assays rely on reduction of a dye to a coloured formazan, in cell work by metabolically active cells.)
The nature of data set [2]: Antiproliferative activity against human DU145 cells after 48 hrs by MTT assay. Particulars: DU-145, 48 h. It counts as functional, cell-based.
A short description of data set [3]: Antiproliferative activity against human MDA-MB-231 cells after 48 hrs by MTT assay. It counts as functional, cell-based. The conditions noted are these: MDA-MB-231, 48 h.
In data set [4] the test system is A549. The experiment in a line: Selectivity ratio of IC50 for human DU145 cells to IC50 for human A549 cells. It counts as functional.
Data set [5] in a line: Cytotoxicity against human HL-7702 cells assessed as reduction in cell viability after 48 hrs by MTT assay. It counts as toxicity, cell-based. The conditions noted are these: l02, 48 h.
For the next data set, the system named is DU-145. The experiment in a line: Selectivity ratio of IC50 for human DU145 cells to IC50 for human MDA-MB-231 cells. It is filed as functional.
The next data set concerns MDA-MB-231. The experiment in a line: Induction of apoptosis in human MDA-MB-231 cells assessed increase in cleaved PARP levels at 1 to 4 uM after 24 hrs by Western blot analysisis. It is filed as functional, cell-based. On the technique in general: A western blot detects proteins with antibodies after separation by electrophoresis.
Data set [6] deals with A549. The experiment in a line: Induction of apoptosis in human A549 cells assessed increase in cleaved PARP levels up to 4 uM after 24 hrs by Western blot analysisis. It counts as functional, cell-based.
Data set [7] addresses T1, Signal transducer and activator of transcription 3 (Homo sapiens, UniProt P40763). The data set can be described thus: Inhibition of STAT3 phosphorylation at tyr705 in human A549 cells after 24 hrs by Western blot analysisis. It is filed as cell-based.
Data set [8] is described as follows: Effect on total STAT3 protein expression in human A549 cells at 1 to 4 uM after 24 hrs by Western blot analysis. The conditions noted are these: a549, 24 h. It counts as ADME, cell-based.
For data set [9], the target named is T1, Signal transducer and activator of transcription 3. The data set can be described thus: Inhibition of IL6-stimulated STAT3 phosphorylation at Tyr-705 residue in human MDA-MB-231 cells at 1 to 4 uM preincubated for 2 hrs followed by IL6 stimulation measured after 30 mins by Western blot analysisis. It is filed as cell-based.
The target is the same in data set [10]. The data set can be described thus: Inhibition of STAT3 phosphorylation at tyr705 in human A549 cells at 4 uM after 24 hrs by Western blot analysisis. It counts as cell-based.
Data set [11] in a line: Effect on total STAT3 protein expression in human MDA-MB-231 cells at 1 to 4 uM after 24 hrs by Western blot analysis. The conditions noted are these: mda-mb-231, 24 h. It counts as ADME, cell-based.
Data set [12] in a line: Downregulation of IL6-stimulated STAT3 expression in human MDA-MB-231 cells at 1 to 4 uM preincubated for 2 hrs followed by IL6 stimulation measured after 30 mins by Western blot analysisis. It counts as functional, cell-based.
The target of data set [13] is T1, Signal transducer and activator of transcription 3. The data set can be described thus: Binding affinity to STAT3 (unknown origin) expressed in Escherichia coli expression system by SPR assay. (Surface plasmon resonance follows binding to a sensor surface in real time, without labels.)
Data set [14] has the same target. The experiment in a line: Inhibition of STAT3 phosphorylation at tyr705 in human MDA-MB-231 cells at 4 uM after 24 hrs by Western blot analysisis. It counts as cell-based.
Data set [15] shares this target. The data set can be described thus: Inhibition of STAT3 phosphorylation at tyr705 in human MDA-MB-231 cells after 24 hrs by Western blot analysisis. It is filed as cell-based.

pIC50, pKd: −log10 of the molar value. The source made the active and inactive calls. No cut-off for these calls is given here. Where only a bound is given, the exact number is not on record here.

T1 sequence (P40763 whole entry): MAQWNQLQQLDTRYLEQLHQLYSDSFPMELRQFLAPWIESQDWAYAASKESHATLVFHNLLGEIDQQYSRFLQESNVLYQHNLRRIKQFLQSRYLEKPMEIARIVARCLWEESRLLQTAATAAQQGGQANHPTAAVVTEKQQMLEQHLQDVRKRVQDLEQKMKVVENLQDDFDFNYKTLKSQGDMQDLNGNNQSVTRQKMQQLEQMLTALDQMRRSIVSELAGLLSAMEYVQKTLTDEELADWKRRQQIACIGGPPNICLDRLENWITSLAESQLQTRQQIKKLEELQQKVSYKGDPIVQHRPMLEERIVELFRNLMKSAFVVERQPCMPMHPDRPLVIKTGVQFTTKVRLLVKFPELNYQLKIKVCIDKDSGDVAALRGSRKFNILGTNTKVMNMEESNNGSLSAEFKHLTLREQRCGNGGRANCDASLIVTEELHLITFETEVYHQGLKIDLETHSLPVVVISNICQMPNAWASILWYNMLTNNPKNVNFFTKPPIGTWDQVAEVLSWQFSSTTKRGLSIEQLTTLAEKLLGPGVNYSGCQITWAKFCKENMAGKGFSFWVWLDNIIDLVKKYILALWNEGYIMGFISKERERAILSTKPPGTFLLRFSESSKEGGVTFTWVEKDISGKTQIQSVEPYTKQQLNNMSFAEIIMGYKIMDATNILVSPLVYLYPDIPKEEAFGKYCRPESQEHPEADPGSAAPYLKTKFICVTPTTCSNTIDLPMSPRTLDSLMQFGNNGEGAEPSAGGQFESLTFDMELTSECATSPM

On to `COc1ccc(/C=C2\CC(C(=O)Nc3ccc(N4CCOCC4)cc3)C/C(=C\c3ccc(OC)cc3)C2=O)cc1` (centres undefined), for which the pIC50 in data set [1] was 5.56; in [2], 4.81; in data set [3], 5.38. Moreover, in the data set on A549 [4], the “Ratio IC50” value was found to be 5.7.

For the compound `COc1ccc(/C=C2\CC(C(=O)Nc3ccccc3)C/C(=C\c3ccc(OC)cc3)C2=O)cc1` (centres undefined), the negative-log IC50 (pIC50) in [1], in data set [2] and in data set [3] was less than 4.70 in each case.

Regarding `CN1CCN(c2ccc(NC(=O)C3C/C(=C\c4ccc(F)cc4)C(=O)/C(=C/c4ccc(F)cc4)C3)cc2)CC1` (centres undefined), the Activity entry in data set [5] is recorded as “Non-Toxic”. The pIC50 was 5.50 in data set [1], 5.58 in [2] and 6.23 in data set [3]. Further, the “Ratio IC50” value in the data set with DU-145 is reported as 5.4.

On to `COc1ccc(/C=C2\CC(C(=O)NC(C)C)C/C(=C\c3ccc(OC)cc3)C2=O)cc1` (centres undefined), for which the pIC50 in data set [1] is 4.82; in data set [2], less than 4.70; in data set [3], less than 4.70.

With `COc1ccc(/C=C2\CC(C(=O)N3CCN(C)CC3)C/C(=C\c3ccc(OC)cc3)C2=O)cc1` (centres undefined), the pIC50 in [1] is 5.04; in data set [2], 4.75; in data set [3], 5.26. Further, the “Ratio IC50” value in the data set on DU-145 is given as 3.2.

As to `CN1CCN(c2cccc(NC(=O)C3C/C(=C\c4ccccc4)C(=O)/C(=C/c4ccccc4)C3)c2)CC1` (centres undefined), the pIC50 in data set [1] is 5.22; in data set [2], 5.06; in data set [3], 5.75. Moreover, the “Ratio IC50” value with DU-145 is given as 4.9.

As for `COc1ccc(/C=C2\CC(C(=O)Nc3cccc(N4CCN(C)CC4)c3)C/C(=C\c3ccc(OC)cc3)C2=O)cc1` (centres undefined), the results for the pIC50 in data set [1], in data set [2] and in data set [3] were 5.43, 4.99 and 5.47, respectively. In addition, in the data set with DU-145, the “Ratio IC50” value is 3.

For the compound `COc1ccc(/C=C2\CC(C(=O)N3CCN(C(C)=O)CC3)C/C(=C\c3ccc(OC)cc3)C2=O)cc1` (centres undefined), the pIC50 in data set [1] is 5.10; in data set [2] it was 4.76; in [3], 5.23. In addition, the “Ratio IC50” value in the data set with DU-145 came out at 3.

With `COc1ccc(/C=C2\CC(C(=O)Nc3ccc(N4CCN(C)CC4)cc3)C/C(=C\c3ccc(OC)cc3)C2=O)cc1` (centres undefined), the pIC50 in [1] is 5.51; in data set [2], 5.15; in [3], 5.48. Moreover, the “Ratio IC50” value with A549 [4] came out at 2.1.

In the case of `COc1ccc(/C=C2\CC(C(=O)Nc3ccc(OC)cc3)C/C(=C\c3ccc(OC)cc3)C2=O)cc1` (centres undefined), the pIC50 in [1], in [2] and in [3] was less than 4.70 in each case.

For the compound `CCN(CC)CCNC(=O)C1C/C(=C\c2ccc(OC)cc2)C(=O)/C(=C/c2ccc(OC)cc2)C1` (centres undefined), the results for the pIC50 in [1], in [2] and in data set [3] were 5.19, 5.16 and 5.42, respectively. Moreover, the “Ratio IC50” value in the data set with DU-145 turned out to be 1.8.

Consider `COc1cc(/C=C/C(=O)CC(=O)/C=C/c2ccc(O)c(OC)c2)ccc1O` [CURCUMIN], for which the pIC50 was 4.82 in data set [1], 4.35 in data set [2] and 4.61 in [3]. Besides, the “Ratio IC50” value in the data set with A549 [4] came out at 3.

Turning to `COc1ccc(/C=C2\CC(C(=O)NCCO)C/C(=C\c3ccc(OC)cc3)C2=O)cc1` (centres undefined), the pIC50 is 4.86 in data set [1], less than 4.70 in data set [2] and 4.93 in data set [3].

`CCN(CC)CCNC(=O)C1C/C(=C\c2ccc(OC)c(O)c2)C(=O)/C(=C/c2ccc(OC)c(O)c2)C1` (centres undefined): the pIC50 in [1] was 5.09; in [2] it was less than 4.70; in data set [3], 5.16.

Consider `COc1ccc(/C=C2\CC(C(=O)N3CCOCC3)C/C(=C\c3ccc(OC)cc3)C2=O)cc1` (centres undefined), for which the values for the pIC50 in [1], in data set [2] and in data set [3] were 4.79, less than 4.70 and 4.95, respectively.

In the case of `COc1ccc(/C=C2\CC(C(=O)Nc3cccc(N4CCN(C)CC4)c3)C/C(=C\c3ccc(OC)c(O)c3)C2=O)cc1O` (centres undefined), the figures for the pIC50 in data set [1], in data set [2] and in [3] were 5.12, 5.08 and 5.80, respectively. Further, the “Ratio IC50” value with DU-145 stood at 5.2.

For the compound `CCN(CC)CCNC(=O)C1C/C(=C\c2ccc(F)cc2)C(=O)/C(=C/c2ccc(F)cc2)C1` (centres undefined), the Activity result in data set [5], in [8] and in [11] was “Non-Toxic” throughout. For the same compound, the values for the pIC50 in [1], in data set [2] and in data set [3] were 5.73, 5.79 and 6.19, respectively. Also, the result (in the data set on MDA-MB-231; with A549 [6]; in [12]) was Active. In addition, the “Ratio IC50” value in the data set on DU-145 was 2.9. Moreover, the inhibition result in data set [7] is “Dose-dependent effect”; in data set [10] it was 100%; in data set [14], 100%; in data set [15], “Dose-dependent effect”. For the same compound, in data set [9], the inhibition result is “Active”. The same compound gave a pKd in data set [13] of 5.10.

In the case of `CN1CCN(c2cccc(NC(=O)C3C/C(=C\c4ccc(F)cc4)C(=O)/C(=C/c4ccc(F)cc4)C3)c2)CC1` (centres undefined), the Activity result in [5] is “Non-Toxic”. Moreover, the pIC50 in [1] is 5.42; in data set [2] it was 5.22; in data set [3] it was 6.11. Moreover, the “Ratio IC50” value in the data set with DU-145 was 7.6.

For `CCN(CC)CCNC(=O)C1C/C(=C\c2ccccc2)C(=O)/C(=C/c2ccccc2)C1` (centres undefined), the negative-log IC50 (pIC50) is 5.41 in data set [1], 5.36 in [2] and 6.20 in [3]. Also, in the data set on DU-145, the “Ratio IC50” value is given as 7.

The values above are taken from ChEMBL document CHEMBL3864166, “4-Carbonyl-2,6-dibenzylidenecyclohexanone derivatives as small molecule inhibitors of STAT3 signaling pathway” (Bioorg Med Chem, 2016).
